# Results as given in paper PMC5330855 (Biochemistry, 2017).
# Columns and labels:
# [1] = target: T1, human IYD (Homo sapiens, UniProt Q6PHW0); assay: Catalytic deiodination by human IYD; type: biochemical
# T1 sequence (Q6PHW0 with tags, fused parts or gaps): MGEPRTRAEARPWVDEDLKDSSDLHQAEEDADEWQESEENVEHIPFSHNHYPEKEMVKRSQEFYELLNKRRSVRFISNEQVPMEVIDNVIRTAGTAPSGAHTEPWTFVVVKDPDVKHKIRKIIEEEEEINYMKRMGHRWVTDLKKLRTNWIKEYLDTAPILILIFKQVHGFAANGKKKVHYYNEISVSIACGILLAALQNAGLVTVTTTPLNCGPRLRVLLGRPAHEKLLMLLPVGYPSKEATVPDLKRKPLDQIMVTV
# [2] = target: T2, hhIYD (Haliscomenobacter hydrossis, UniProt F4KU78); assay: Anaerobic reduction of hhIYD by xanthine and xanthine oxidase; type: biochemical; conditions: hhIYD 20 μM; F-Tyr 500 μM or 2IP 800 μM
# T2 sequence (F4KU78 1-222): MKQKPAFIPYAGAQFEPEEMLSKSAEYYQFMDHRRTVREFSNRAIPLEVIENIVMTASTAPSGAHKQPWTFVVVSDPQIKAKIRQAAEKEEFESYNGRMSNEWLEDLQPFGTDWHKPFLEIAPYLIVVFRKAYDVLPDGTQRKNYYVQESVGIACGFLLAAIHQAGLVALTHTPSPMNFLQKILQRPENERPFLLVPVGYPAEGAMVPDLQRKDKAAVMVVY
# [3] = Intrinsic reactivity of free cofactor FMNhq with 2IP; type: biochemical; conditions: FMN 2.5 μM, 2IP 5 mM, dithionite 0.5% w/v, 2 h incubation; threshold ~ 3 nmol
# [4] = target: T2, hhIYD; assay: Quenching of FMNox fluorescence, ligand binding to hhIYD
# [5] = target: T2, hhIYD; type: biochemical
# [6] = tested on: IYD; conditions: cited from earlier work
molecule,measurement,setting,value
"Oc1ccccc1I [2IP, 2-iodophenol]",Km greater than that for I-Tyr,[1],560 fold
same,kcat less than that for I-Tyr,[1],26 fold
same,accumulation of the FMNsq intermediate during reduction,[2],did not detectably promote an accumulation of the FMNsq intermediate
same,phenol formed with free FMN,[3],no phenol was detected
same,increase in affinity for hhIYD relative to human IYD,[4]; hhIYD relative to human IYD,~ 20 fold
"N[C@@H](Cc1ccc(O)c(I)c1)C(=O)O [I-Tyr, 3-iodo-L-tyrosine, reference compound]",Km greater than Kd,[1],> 80 fold
same,kcat/Km larger than that measured for I2-Tyr,[1]; I2-Tyr by 125I-iodide release assay,50%
same,"increase in kcat/Km, hhIYD relative to human IYD",[5]; hhIYD versus human IYD,16 fold
same,weaker affinity for hhIYD than human IYD,[4]; hhIYD relative to human IYD,~ 90 fold
"Nc1ccc(O)c(I)c1 [4A2IP, 4-amino-2-iodophenol]",kcat/Km greater than the parent 2IP,[5]; hhIYD,~6 fold
same,Kd larger than that for 2IP,[4]; hhIYD,40%
"O-(4-hydroxy-3,5-diiodophenoxy)-3,5-diiodo-L-tyrosine [Thyroxine]",dehalogenation by IYD,[6],not dehalogenated by IYD
"N#Cc1ccc(O)c(I)c1 [2IPCN, 4-cyano-2-iodophenol]",deiodination by the bacterial deiodinase,[5]; hhIYD,not detectably deiodinated
same,Kd lower than that of 2IP,[4]; hhIYD,~50 fold
"N[C@@H](Cc1ccc(O)c(F)c1)C(=O)O [F-Tyr, 3-fluoro-L-tyrosine, reference compound]",Kd,[4],46 ± 2 µM
"O=C(O)c1ccc(O)c(I)c1 [2IPCOOH, 4-hydroxy-3-iodobenzoic acid]",Km larger than that for 2IP,[5]; hhIYD,75%
